PubChem BioAssay (NCI)
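A five-concentration, 48-hour dose response in 96-well plates underlies each endpoint, interpolated linearly between surrounding concentrations. At the GI50, growth is halved. TGI marks complete inhibition of growth.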

How the values were obtained:
Experiment in all cases: growth of human tumour cells (NCI), 48 h
SK-MEL-28 melanoma = tested on: SK-MEL-28 melanoma
SF-539 CNS = tested on: SF-539 CNS
IGROV1 ovarian = tested on: IGROV1 ovarian
SK-OV-3 ovarian = tested on: SK-OV-3 ovarian
HCC-2998 colon = tested on: HCC-2998 colon
SF-295 CNS = tested on: SF-295 CNS
NCI-H460 lung = tested on: NCI-H460 lung
UO-31 renal = tested on: UO-31 renal
MDA-MB-231 breast = tested on: MDA-MB-231 breast
NCI/ADR-RES ovarian = tested on: NCI/ADR-RES ovarian

Row | Structure (SMILES) | TGI (SK-MEL-28 melanoma) | TGI (SF-539 CNS) | TGI (IGROV1 ovarian) | TGI (SK-OV-3 ovarian) | TGI (HCC-2998 colon) | TGI (SF-295 CNS) | TGI (NCI-H460 lung) | TGI (UO-31 renal) | GI50 (SK-MEL-28 melanoma) | GI50 (SF-539 CNS) | GI50 (IGROV1 ovarian) | GI50 (SK-OV-3 ovarian) | GI50 (HCC-2998 colon) | GI50 (MDA-MB-231 breast) | TGI (MDA-MB-231 breast) | GI50 (SF-295 CNS) | GI50 (NCI-H460 lung) | GI50 (UO-31 renal) | GI50 (NCI/ADR-RES ovarian) | TGI (NCI/ADR-RES ovarian)
1 | CC(C)(C)OP(=O)(OC(C)(C)C)C(O)c1ccc(/C=C(\C#N)C(N)=O)cc1 (centres undefined) | > 100 µM | > 100 µM | > 100 µM | > 100 µM | > 100 µM | > 100 µM | > 100 µM | > 100 µM |  |  |  |  |  |  |  |  |  |  |  | 
2 | S=c1o[nH]c(-c2ccccc2)c1C=Nc1ccccc1 | > 100 µM | > 100 µM | > 100 µM | > 100 µM | > 100 µM | > 100 µM | > 100 µM | > 100 µM |  |  |  |  |  |  |  |  |  |  |  | 
3 | COC(=O)c1cccc2c3ccccc3c3ccccc3c12 | > 100 µM |  | > 100 µM | 75.7 µM | > 100 µM | 65.9 µM |  | > 100 µM |  |  |  |  |  |  |  |  |  |  |  | 
4 | CCCCCCCCOCC(O)CO (centres undefined) | > 100 µM | > 100 µM | > 100 µM | > 100 µM | > 100 µM | > 100 µM | > 100 µM | > 100 µM |  |  |  |  |  |  |  |  |  |  |  | 
5 | CC1=CC(C)(c2c[nH]c3ccccc23)CC(C)(C)c2c1[nH]c1ccccc21 (centres undefined) | 30.1 µM | > 100 µM | 36 µM | 61.8 µM | 30.4 µM | 32.6 µM | 34.5 µM | 27.3 µM |  |  |  |  |  |  |  |  |  |  |  | 
6 | NCCCCCNc1noc(Cc2c[nH]c3cc(Br)ccc23)n1 | 19.3 µM | 5.84 µM | 27.4 µM | 12.5 µM | 14.7 µM | 25.3 µM | 12 µM | 25.3 µM | 3.93 µM | 2.15 µM | 5.09 µM | 2.46 µM | 2.84 µM | 2.78 µM | 15.7 µM | 2.53 µM | 3.12 µM | 3.46 µM |  | 
7 | CC1(C)CCCC2(C)C3C(O)CC2(C)C(O)C31 (centres undefined) | > 100 µM | > 100 µM | > 100 µM | > 100 µM | > 100 µM | > 100 µM | > 100 µM | > 100 µM |  |  |  |  |  |  |  |  |  |  |  | 
8 | [N-]=[N+]=NCCCn1c2c(c3ccc([N+](=O)[O-])cc3c1=O)C(=O)c1cc3c(cc1-2)OCO3 | > 100 µM | < 0.0363 µM | 1.46 µM | > 100 µM |  | < 0.0428 µM | 0.501 µM | 2.28 µM | 14.4 µM | < 0.0171 µM | 0.165 µM | 0.7 µM |  | 0.828 µM | 12.3 µM | < 0.012 µM | < 0.01 µM | < 0.0335 µM | < 0.0114 µM | < 0.041 µM
9 | N#Cc1c(-c2ccccc2)cc(-c2ccc(N)cc2)[nH]c1=O | > 100 µM | > 100 µM | > 100 µM | > 100 µM | > 100 µM | > 100 µM | > 100 µM | > 100 µM |  |  |  |  |  |  |  |  |  |  |  | 
10 | O=C(Nc1cccc(-n2cc(-c3ccncc3)c(-c3ccc(O)c(Cl)c3)n2)c1)c1ccc2c(c1)OCCO2 |  | > 100 µM | > 100 µM | > 100 µM | > 100 µM | > 100 µM | > 100 µM | > 100 µM |  | 6.63 µM | > 100 µM | > 100 µM | > 100 µM | 2.92 µM | > 100 µM | 4.88 µM | 6.2 µM | 4.03 µM | 5.7 µM | > 100 µM
11 | Cc1ccccc1NC(=O)/C=N/O | > 100 µM |  | > 100 µM | > 100 µM | > 100 µM | > 100 µM |  | > 100 µM |  |  |  |  |  |  |  |  |  |  |  | 
12 | Cc1ccc(S(=O)(=O)N/N=C(\c2nc3ccc([N+](=O)[O-])cc3[nH]c2=O)C(O)c2ccc([N+](=O)[O-])cc2)cc1 (centres undefined) | > 100 µM | > 100 µM | > 100 µM | > 100 µM | > 100 µM | > 100 µM | > 100 µM | > 100 µM |  |  |  |  |  |  |  |  |  |  |  | 
13 | CC(=O)Oc1ccc2c(c1)[C@@]1(C)CCCC(C)(C)[C@@H]1CC2 | 49.8 µM |  | > 100 µM |  |  | 56.6 µM | 90.5 µM | 79.9 µM | 19.3 µM |  | 49.4 µM |  |  | 17.8 µM | 34.2 µM | 19.1 µM | 27.5 µM | 31.3 µM | 26 µM | 49.9 µM
14 | Nc1ccc(-c2cc(C(=O)Nc3nccs3)[nH]c(=S)n2)cc1 | > 100 µM | > 100 µM | > 100 µM | > 100 µM |  |  |  | > 100 µM |  |  |  |  |  |  |  |  |  |  |  | 
15 | O=C1C(=C2CCCC2)CCC1CN1CCCCC1 (centres undefined) | 31.3 µM | 50.1 µM | 36.3 µM |  | 29.8 µM | > 100 µM |  | > 100 µM |  |  |  |  |  |  |  |  |  |  |  | 
16 | CCCCC(C)/C=C/C(=O)C1=C(O)/C(=C/C(=O)O)OC1=O (centres undefined) | > 100 µM | > 100 µM | > 100 µM | > 100 µM |  | > 100 µM | > 100 µM | > 100 µM |  |  |  |  |  |  |  |  |  |  |  | 
17 | O=C1CC(c2c(-c3ccccc3)[nH]c3ccccc23)C(=O)N1c1ccccc1 (centres undefined) | > 100 µM | > 100 µM | > 100 µM | > 100 µM | > 100 µM | > 100 µM | > 100 µM | > 100 µM |  |  |  |  |  |  |  |  |  |  |  | 
18 | Nc1nonc1-c1nc2ccccc2n1Cc1ccc(F)cc1 | > 100 µM | > 100 µM | > 100 µM | > 100 µM |  | > 100 µM | > 100 µM | > 100 µM | 7.89 µM | 8.14 µM | 5.25 µM | 16.8 µM |  | 6.84 µM | > 100 µM | 13.1 µM | 4.25 µM | 5.72 µM | 4.16 µM | > 100 µM
19 | Nc1c(C(=O)Nc2ccccn2)sc2nc3c(cc12)C(O)CCC3 (centres undefined) | > 50 µM | > 50 µM | > 50 µM |  | > 50 µM | > 50 µM | > 50 µM | > 50 µM | > 50 µM | 1.47 µM | 3.27 µM |  | 1.85 µM | 18.3 µM | > 50 µM | 1.74 µM | 1.88 µM | 3.68 µM | 1.83 µM | > 50 µM
20 | CNC(=O)c1cc(Oc2cccc3nc(NC(=O)Nc4cc(C(F)(F)F)cc(C(F)(F)F)c4)ccc23)ccn1 | > 100 µM | 37.9 µM |  | 10.1 µM | > 100 µM | 15.2 µM | 36.6 µM | 40.5 µM | 4.67 µM | 6.68 µM |  | 2.99 µM | 15.5 µM |  |  | 3.69 µM | 4.16 µM | 4.91 µM | 5.62 µM | 52 µM
